In publication PMC10394814, “Discovery and evaluation of active compounds from Xuanfei Baidu formula against COVID-19 via SARS-CoV-2 M^pro” (Chinese Medicine, 2023):

Key:
Omicron BA.2.3 variant = assay: Antiviral activity assay (CPE) in Vero E6 cells, Omicron BA.2.3; format: cell-based, SARS-CoV-2; settings: Severe acute respiratory syndrome coronavirus 2, Vero C1008, 48 h
Omicron BA.1.1 variant = assay: Antiviral activity assay (CPE) in Vero E6 cells, Omicron BA.1.1; format: cell-based, SARS-CoV-2; settings: Severe acute respiratory syndrome coronavirus 2, Vero C1008, 48 h

Question: What does the source list for C[C@@H]1O[C@@H](O[C@@H]2[C@@H](O)[C@H](OCCc3ccc(O)c(O)c3)O[C@H](CO)[C@H]2OC(=O)/C=C/c2ccc(O)c(O)c2)[C@H](O)[C@H](O)[C@H]1O [Acteoside]?
Answer: EC50 (Omicron BA.2.3 variant): 70.4 µM; EC50 (Omicron BA.1.1 variant): 41.3 µM
